Test results as given in ChEMBL document CHEMBL1143910, “Synthesis of guanidino analogues of PMPDAP and their immunobiological activity” (Bioorg Med Chem, 2008).
Active and inactive are the calls of the source. The rule behind the calls is not given here.

Experiments:
L1210 = experiment: Cytotoxicity against mouse L1210 cells; assay type: cell-based
Macrophage [1] = experiment: Increase in IFN-gamma stimulated nitric oxide production in C57BL/6 mouse peritoneal macrophages at 100 uM after 24 hrs; assay type: functional, cell-based
[2] = system: Human immunodeficiency virus 1; experiment: Antiviral activity against HIV1; assay type: functional, organism-based
Maize streak virus = experiment: Antiviral activity against MSV; assay type: functional
[3] = system: Human immunodeficiency virus 2; experiment: Antiviral activity against HIV2; assay type: functional, organism-based
L929 = experiment: Cytotoxicity against mouse L929 cells; assay type: cell-based
[4] = Cytotoxicity against human HeLaS3 cells; assay type: cell-based; details: hela s3
Macrophage [5] = experiment: Activation of MIP1-alpha secretion in C57BL/6 mouse peritoneal macrophages at 100 uM after 16 hrs by ELISA; assay type: functional, cell-based
PBMC [6] = experiment: Activation of MIP1-alpha secretion in human PBMC at 50 uM after 16 hrs by ELISA; assay type: functional, cell-based
Macrophage [7] = experiment: Activation of RANTES secretion in C57BL/6 mouse peritoneal macrophages at 100 uM after 16 hrs by ELISA; assay type: functional, cell-based
PBMC [8] = experiment: Activation of RANTES secretion in human PBMC at 50 uM after 16 hrs by ELISA; assay type: functional, cell-based
Macrophage [9] = experiment: Increase in IFN-gamma stimulated nitric oxide production in C57BL/6 mouse peritoneal macrophages at 10 to 25 uM after 24 hrs; assay type: functional, cell-based
[10] = Activation of TNFalpha secretion in C57BL/6 mouse peritoneal macrophages at 100 uM after 16 hrs by ELISA; assay type: functional, cell-based; details: Macrophage

| SMILES | Activity (L1210) | Activity (Macrophage [1]) | Activity [2] | Activity (Maize streak virus) | Activity [3] | Activity (L929) | Activity [4] | Activity (Macrophage [5]) | Activity (PBMC [6]) | Activity (Macrophage [7]) | Activity (PBMC [8]) | Activity (Macrophage [9]) | Activity [10] |
| --- | --- | --- | --- | --- | --- | --- | --- | --- | --- | --- | --- | --- | --- |
| C[C@H](Cn1c(N=C(N)N)nc(N)c2ncnc1-2)OCP(=O)(O)O | Not Active | Active | inactive | inactive | inactive | Not Active | Not Active |  |  |  |  |  |  |
| C[C@H](Cn1cnc2nc(N=C(N)N)ncc21)OCP(=O)(O)O | Not Active | inactive | inactive | inactive | inactive | Not Active | Not Active |  |  |  |  |  |  |
| C[C@@H](Cn1cnc2nc(N=C(N)N)ncc21)OCP(=O)(O)O | Not Active | inactive | inactive | inactive | inactive | Not Active | Not Active |  |  |  |  |  |  |
| C[C@H](Cn1cnc2c(N)nc(N=C(N)N)nc21)OCP(=O)(O)O | Not Active | inactive | inactive | inactive | inactive | Not Active | Not Active |  |  |  |  |  |  |
| C[C@@H](Cn1cnc2c(N=C(N)N)ncnc21)OCP(=O)(O)O | Not Active | inactive | inactive | inactive | inactive | Not Active | Not Active |  |  |  |  |  |  |
| C[C@@H](Cn1cnc2ncnc(N=C(N)N)c21)OCP(=O)(O)O | Not Active | inactive | inactive | inactive | inactive | Not Active | Not Active |  |  |  |  |  |  |
| C[C@@H](Cn1cnc2nc(N)nc(N=C(N)N)c21)OCP(=O)(O)O | Not Active | Active | inactive | inactive | inactive | Not Active | Not Active |  |  |  |  |  |  |
| C[C@H](Cn1cnc2ncnc(N=C(N)N)c21)OCP(=O)(O)O | Not Active | inactive | inactive | inactive | inactive | Not Active | Not Active |  |  |  |  |  |  |
| C[C@H](Cn1cnc2cnc(N=C(N)N)nc21)OCP(=O)(O)O | Not Active | inactive | inactive | inactive | inactive | Not Active | Not Active |  |  |  |  |  |  |
| C[C@@H](Cn1cnc2c(N)nc(N=C(N)N)nc21)OCP(=O)(O)O | Not Active | inactive | inactive | inactive | inactive | Not Active | Not Active |  |  |  |  |  |  |
| C[C@@H](Cn1c(N=C(N)N)nc(N)c2ncnc1-2)OCP(=O)(O)O | Not Active | Active | inactive | inactive | inactive | Not Active | Not Active | Active | Active | Active | Active | Active | Active |
| C[C@@H](Cn1cnc2cnc(N=C(N)N)nc21)OCP(=O)(O)O | Not Active | inactive | inactive | inactive | inactive | Not Active | Not Active |  |  |  |  |  |  |
| C[C@H](Cn1cnc2c(N=C(N)N)nc(N)nc21)OCP(=O)(O)O | Not Active | Active | inactive | inactive | inactive | Not Active | Not Active | Active | Active | Active | Active | Active | Active |
| C[C@H](Cn1cnc2nc(N)nc(N=C(N)N)c21)OCP(=O)(O)O | Not Active | Active | inactive | inactive | inactive | Not Active | Not Active |  |  |  |  |  |  |
| C[C@@H](Cn1cnc2c(N=C(N)N)nc(N)nc21)OCP(=O)(O)O | Not Active | Active | inactive | inactive | inactive | Not Active | Not Active |  |  |  |  |  |  |
| C[C@H](Cn1cnc2c(N=C(N)N)ncnc21)OCP(=O)(O)O | Not Active | inactive | inactive | inactive | inactive | Not Active | Not Active |  |  |  |  |  |  |
